Where two headings read alike, the source gives them in different places.
What was measured:
[1] = biological target: 3CLpro of MERS-CoV (Middle East respiratory syndrome-related coronavirus, UniProt K9N7C7); experiment: biochemical; assay type: biochemical
[2] = biological target: 3CLpro of SARS-CoV (Severe acute respiratory syndrome coronavirus, UniProt P0C6X7); assay type: biochemical; settings: read-out: IC50 in enzyme assay (μM) SARS-CoV
[3] = biological target: T1, 3CLpro of SARS-CoV-2 (Severe acute respiratory syndrome coronavirus 2, UniProt P0DTD1); experiment: biochemical; assay type: biochemical
T1 construct: The codon-optimized cDNA of full length of 3CLpro of SARS-CoV-2; 6xHis (N); made in house; pET-28a(+) vector (points to E. coli, my inference)

[4] = test system: SARS-CoV-2; experiment: microbe, parasite or virus in culture; assay type: cell-based
[5] = test system: MHV-1; experiment: microbe, parasite or virus in culture; assay type: cell-based, mouse hepatitis virus (MHV); settings: Murine coronavirus, read-out: EC50 in cell culture (μM) MHV
[6] = test system: FIPV; experiment: microbe, parasite or virus in culture; assay type: cell-based; settings: Alphacoronavirus 1, CRFK, read-out: EC50 in cell culture (μM) FIPV
[7] = Nonspecific cytotoxic effects (CC50), CytoTox 96 kit; settings: Huh-7, CRFK or CCL1 cells (confluent, 96-well plates)
[8] = test system: MERS-CoV; experiment: microbe, parasite or virus in culture; assay type: cell-based
[9] = biological target: NV 3CLpro (Norovirus, UniProt Q83883); experiment: biochemical; assay type: biochemical
NV 3CLpro, sequence (Q83883 1101-1281): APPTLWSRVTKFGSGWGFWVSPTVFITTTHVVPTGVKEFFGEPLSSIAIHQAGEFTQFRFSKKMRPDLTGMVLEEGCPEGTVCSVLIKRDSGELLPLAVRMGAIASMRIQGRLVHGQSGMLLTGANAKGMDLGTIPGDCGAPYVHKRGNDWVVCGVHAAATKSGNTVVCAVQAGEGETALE

[10] = test system: NV in the replicon harboring cells (HG23 cells); experiment: microbe, parasite or virus in culture; assay type: cell-based, norovirus (NV)
[11] = test system: HG23 cells
[12] = test system: feline infectious peritonitis (FIP), a coronavirus-induced systemic disease; settings: cited from earlier work
[13] = test system: Huh-7, CRFK or CCL1 cells; experiment: Nonspecific cytotoxic effects (CC50), CytoTox 96 kit
[14] = in vitro; settings: human
[15] = read-out: IC50 in enzyme assay (μM) MERS-CoV
[16] = Middle East respiratory syndrome-related coronavirus, Huh-7, read-out: EC50 in cell culture (μM) MERS-CoV
[17] = Norovirus, HG23, read-out: EC50 (μM) ± SD

3CLpro of MERS-CoV, sequence (K9N7C7 3248-3553 limits assumed): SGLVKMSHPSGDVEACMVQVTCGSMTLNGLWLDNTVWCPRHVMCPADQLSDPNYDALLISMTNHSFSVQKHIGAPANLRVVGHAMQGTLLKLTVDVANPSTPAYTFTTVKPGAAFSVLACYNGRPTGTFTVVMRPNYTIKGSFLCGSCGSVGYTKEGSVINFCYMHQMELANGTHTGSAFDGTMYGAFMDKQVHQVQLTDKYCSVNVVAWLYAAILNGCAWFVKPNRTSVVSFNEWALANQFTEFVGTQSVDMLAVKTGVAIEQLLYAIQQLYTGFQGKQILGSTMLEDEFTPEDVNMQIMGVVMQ

Row | Molecule | IC50 [1, 15] | IC50 [2] | EC50 [5] | EC50 [6] | CC50 at 72 h [7] | IC50 [9] | EC50 [10, 17] | CC50 [14] | also measured
1 | CCCCC1CCC(OC(=O)N[C@@H](CC(C)C)C(=O)N[C@H](C=O)C[C@@H]2CCNC2=O)CC1 (stereo partly drawn) [Compound 6e (Scheme 1), 4-butylcyclohexyl ((S)-4-methyl-1-oxo-1-(((S)-1-oxo-3-((S)-2-oxopyrrolidin-3-yl)propan-2-yl)amino)pentan-2-yl)carbamate] | 0.15 µM | 0.9 µM | 0.12 µM | 0.22 µM | > 100 µM | – | – | – | IC50 [3]: 0.8 µM; EC50 ([4]; Severe acute respiratory syndrome coronavirus 2, Vero C1008, read-out: EC50 in cell culture (μM) SARS-CoV-2): 0.1 µM
2 | CC(C)C[C@H](NC(=O)OCC(C)(C)c1cccc(Cl)c1)C(=O)N[C@H](C=O)C[C@@H]1CCNC1=O [Compound 5g (Scheme 2)] | – | – | – | – | – | – | – | – | IC50 ([1]; read-out: MERS-CoV IC50(μM) Enzyme): 0.08 µM; IC50 ([3]; read-out: SARS-CoV-2 IC50 (μM) enzyme): 0.3 µM; EC50 ([8]; read-out: MERS-CoV EC50 (μM) Cell culture): 0.05 µM; EC50 ([4]; read-out: SARS-CoV-2 EC50 (μM) Cell culture): 0.18 µM; IC50 ([9]; read-out: IC50 (μM) ± SD): 0.27 ± 0.04 µM; EC50 ([10]; read-out: EC50 (μM) ± SD): 0.17 ± 0.05 µM; CC50 [11]: > 100 µM
3 | CC(C)C[C@H](NC(=O)OCc1ccccc1)C(=O)N[C@@H](C[C@@H]1CCNC1=O)C(O)S(=O)(=O)[O-].[Na+] (some centres unmarked) [GC376, reference compound] | – | – | – | – | – | – | – | – | EC50 ([8]; read-out: EC50 in cell culture (μM) MERS-CoV): […]; clinical efficacy in cats with feline infectious peritonitis (FIP) [12]: reversed the progression of FIP and resulted in clinical remission; CC50 ([13]; 72 h, 1 to 100 μM, Table 1): > 100 µM
4 | CC(C)C[C@H](NC(=O)OC1CCCCC1)C(=O)N[C@@H](C[C@@H]1CCNC1=O)C(O)S(=O)(=O)[O-].[Na+] (stereo partly drawn) [Compound 7a (Scheme 1), sodium (2S)-2-((S)-2-(((cyclohexyloxy)carbonyl)amino)-4-methylpentanamido)-1-hydroxy-3-((S)-2-oxopyrrolidin-3-yl)propane-1-sulfonate] | 0.15 µM | 3.8 µM | 0.08 µM | 0.07 µM | > 100 µM | – | – | – | IC50 [3]: 3.5 µM; EC50 values against MERS-CoV in cell culture (in words) [8]: submicromolar; EC50 [8, 16]: 0.08 µM
5 | CC(C)C[C@H](NC(=O)OC1(c2cccc(Cl)c2)CC1)C(=O)N[C@H](C=O)C[C@@H]1CCNC1=O [Compound 5r] | – | – | – | – | – | 0.28 ± 0.03 µM | 0.65 ± 0.2 µM | > 100 µM | –
6 | O=C[C@H](C[C@@H]1CCNC1=O)NC(=O)[C@H](CC1CCCCC1)NC(=O)OC/C=C/c1cccc(Cl)c1 [Compound 5s] | – | – | – | – | – | 0.14 ± 0.01 µM | 0.06 ± 0.01 µM | 24.1 ± 0.6 µM | –
7 | CC(C)C[C@H](NC(=O)OC/C=C/c1cccc(Cl)c1)C(=O)N[C@H](C=O)C[C@@H]1CCNC1=O [Compound 5t] | – | – | – | – | – | 0.15 ± 0.05 µM | 0.08 ± 0.01 µM | > 100 µM | –
8 | CC(C)C[C@H](NC(=O)OC1CCC(F)(F)CC1)C(=O)N[C@@H](C[C@@H]1CCNC1=O)C(O)S(=O)(=O)[O-].[Na+] (stereo partly drawn) [Compound 7h (Scheme 1), sodium (2S)-2-((S)-2-((((4,4-difluorocyclohexyl)oxy)carbonyl)amino)-4-methylpentan-amido)-1-hydroxy-3-((S)-2-oxopyrrolidin-3-yl)propane-1-sulfonate] | 0.08 µM | 2.2 µM | 0.11 µM | 0.12 µM | > 100 µM | – | – | – | EC50 values against MERS-CoV in cell culture (in words) [8]: submicromolar; EC50 [8, 16]: 0.21 µM
9 | O=C[C@H](C[C@@H]1CCNC1=O)NC(=O)[C@H](CC1CCCCC1)NC(=O)OC1(c2cccc(Cl)c2)CC1 [Compound 5q] | – | – | – | – | – | 0.28 ± 0.06 µM | 0.25 ± 0.07 µM | 36.5 ± 7.1 µM | –
10 | CC(C)C[C@H](NC(=O)OCC1CCC(F)(F)CC1)C(=O)N[C@@H](C[C@@H]1CCNC1=O)C(O)S(=O)(=O)O (stereo partly drawn) [Compound 7j (Scheme 1), sodium (2S)-2-((S)-2-((((4,4-difluorocyclohexyl)methoxy)carbonyl)amino)-4-methylpentan-amido)-1-hydroxy-3-((S)-2-oxopyrrolidin-3-yl)propane-1-sulfonate] | 0.1 µM | 1.1 µM | 0.16 µM | 0.07 µM | > 100 µM | – | – | – | –
11 | Sodium (2S)-1-hydroxy-2-((S)-4-methyl-2-(((((1s,4S)-4-propylcyclohexyl) methoxy-d2) carbonyl) amino) pentanamido)-3-(2-oxopyrrolidin-3-yl) propane-1-sulfonate [Compound 9c] | – | – | – | – | – | – | – | – | CC50 ([13]; Huh-7, CRFK, or CCL1 cells, Table 7): > 100 µM

From patent US12583820B2, “Broad spectrum antivirals against coronavirus” (priority 2020, dated 2026)
